Organism: Rattus norvegicus
Test: DrugMatrix - Regimen: Daily Repeat
Assay type: toxicity, organism-based, Sprague-Dawley
Parameters: regimen Daily Repeat, gender Male, age 6-8 weeks
Conditions: in vivo, sc, route subcutaneous, […]; for ABSOLUTE BASOPHIL / ABSOLUTE EOSINOPHIL / ABSOLUTE LYMPHOCYTE / ABSOLUTE MONOCYTE / ABSOLUTE SEGMENTED NEUTROPHIL / BASOPHIL / EOSINOPHIL / ERYTHROCYTE COUNT / HEMATOCRIT / HEMOGLOBIN / LEUKOCYTE COUNT / LYMPHOCYTE / MEAN CORPUSCULAR HEMOGLOBIN / MEAN CORPUSCULAR HEMOGLOBIN CONCENTRATION / MEAN CORPUSCULAR VOLUME / MONOCYTE / NEUTROPHIL / NUCLEATED RED BLOOD CELLS / PLATELET COUNT: tissue Blood; for ALANINE AMINOTRANSFERASE / ALBUMIN / ALKALINE PHOSPHATASE / ASPARTATE AMINOTRANSFERASE / BLOOD UREA NITROGEN / CARBON DIOXIDE / CHLORIDE / CHOLESTEROL / CREATINE PHOSPHOKINASE / CREATININE / GLUCOSE / LACTATE DEHYDROGENASE / LIPASE / PHOSPHORUS / POTASSIUM / SODIUM / TOTAL BILIRUBIN / TOTAL PROTEIN / URIC ACID: tissue Plasma
[1] = 0 mg/kg, 72 h, dose level Control, time 3 day
[2] = 0 mg/kg, 120 h, dose level Control, time 5 day
[3] = 56 mg/kg, 72 h, dose level M1, time 3 day

## O=C(Nc1ccc(Br)cc1)c1cc(Br)cc(Br)c1O [TRIBROMSALAN]
[1]
  ABSOLUTE BASOPHIL: 0 CELLS/uL
  ABSOLUTE EOSINOPHIL: 42.67 CELLS/uL
  ABSOLUTE LYMPHOCYTE: 10202 CELLS/uL
  ABSOLUTE MONOCYTE: 261.5 CELLS/uL
  ABSOLUTE SEGMENTED NEUTROPHIL: 2193.83 CELLS/uL
  BASOPHIL: 0%
  EOSINOPHIL: 0.33%
  ERYTHROCYTE COUNT: 5.63 x10E6/uL
  HEMATOCRIT: 35.35%
  HEMOGLOBIN: 13.07 G/DL
  LEUKOCYTE COUNT: 12.7 x10E3/uL
  LYMPHOCYTE: 81.17%
  MEAN CORPUSCULAR HEMOGLOBIN: 23.23 pg
  MEAN CORPUSCULAR HEMOGLOBIN CONCENTRATION: 36.97 G/DL
  MEAN CORPUSCULAR VOLUME: 62.82 fL
  MONOCYTE: 2%
  NEUTROPHIL: 16.5%
  NUCLEATED RED BLOOD CELLS: 0 /100WBC
  PLATELET COUNT: 1180.33 x10E3/uL
  ALANINE AMINOTRANSFERASE: 48.67 u/L
  ALBUMIN: 4.08 G/DL
  ALKALINE PHOSPHATASE: 360.67 u/L
  ASPARTATE AMINOTRANSFERASE: 85.5 u/L
  BLOOD UREA NITROGEN: 17.83 mg/dL
  CARBON DIOXIDE: 26.17 mmol/L
  CHLORIDE: 101.83 MEQ/L
  CHOLESTEROL: 71 mg/dL
  CREATINE PHOSPHOKINASE: 515.17 u/L
  CREATININE: 0.22 mg/dL
  GLUCOSE: 192.5 mg/dL
  LACTATE DEHYDROGENASE: 214.67 u/L
  LIPASE: 8.5 u/L
  PHOSPHORUS: 12.95 mg/dL
  POTASSIUM: 6.39 MEQ/L
  SODIUM: 142.38 MEQ/L
  TOTAL BILIRUBIN: 0.18 mg/dL
  TOTAL PROTEIN: 5.95 G/DL
  URIC ACID: 1.83 mg/dL
[2]
  ABSOLUTE BASOPHIL: 0 CELLS/uL
  ABSOLUTE EOSINOPHIL: 188.5 CELLS/uL
  ABSOLUTE LYMPHOCYTE: 12360.83 CELLS/uL
  ABSOLUTE MONOCYTE: 64.33 CELLS/uL
  ABSOLUTE SEGMENTED NEUTROPHIL: 1986.33 CELLS/uL
  BASOPHIL: 0%
  EOSINOPHIL: 1.33%
  ERYTHROCYTE COUNT: 5.52 x10E6/uL
  HEMATOCRIT: 35.82%
  HEMOGLOBIN: 13.25 G/DL
  LEUKOCYTE COUNT: 14.6 x10E3/uL
  LYMPHOCYTE: 84.5%
  MEAN CORPUSCULAR HEMOGLOBIN: 24.05 pg
  MEAN CORPUSCULAR HEMOGLOBIN CONCENTRATION: 36.98 G/DL
  MEAN CORPUSCULAR VOLUME: 64.97 fL
  MONOCYTE: 0.5%
  NEUTROPHIL: 13.67%
  NUCLEATED RED BLOOD CELLS: 0 /100WBC
  PLATELET COUNT: 1297.83 x10E3/uL
  ALANINE AMINOTRANSFERASE: 51.17 u/L
  ALBUMIN: 4.08 G/DL
  ALKALINE PHOSPHATASE: 393.17 u/L
  ASPARTATE AMINOTRANSFERASE: 111 u/L
  BLOOD UREA NITROGEN: 18.17 mg/dL
  CARBON DIOXIDE: 25 mmol/L
  CHLORIDE: 105.17 MEQ/L
  CHOLESTEROL: 65.5 mg/dL
  CREATINE PHOSPHOKINASE: 911.5 u/L
  CREATININE: 0.21 mg/dL
  GLUCOSE: 183 mg/dL
  LACTATE DEHYDROGENASE: 189 u/L
  LIPASE: 8.33 u/L
  PHOSPHORUS: 12.78 mg/dL
  POTASSIUM: 6.05 MEQ/L
  SODIUM: 144.57 MEQ/L
  TOTAL BILIRUBIN: 0.25 mg/dL
  TOTAL PROTEIN: 5.83 G/DL
  URIC ACID: 1.58 mg/dL
[3]
  ABSOLUTE BASOPHIL: 0 CELLS/uL
  ABSOLUTE EOSINOPHIL: 245 CELLS/uL
  ABSOLUTE LYMPHOCYTE: 12670.67 CELLS/uL
  ABSOLUTE MONOCYTE: 0 CELLS/uL
  ABSOLUTE SEGMENTED NEUTROPHIL: 1651 CELLS/uL
  BASOPHIL: 0%
  EOSINOPHIL: 1.67%
  ERYTHROCYTE COUNT: 5.81 x10E6/uL
  HEMATOCRIT: 35.97%
  HEMOGLOBIN: 13.47 G/DL
  LEUKOCYTE COUNT: 14.57 x10E3/uL
  LYMPHOCYTE: 87.33%
  MEAN CORPUSCULAR HEMOGLOBIN: 23.27 pg
  MEAN CORPUSCULAR HEMOGLOBIN CONCENTRATION: 37.43 G/DL
  MEAN CORPUSCULAR VOLUME: 62.03 fL
  MONOCYTE: 0%
  NEUTROPHIL: 11%
  NUCLEATED RED BLOOD CELLS: 0 /100WBC
  PLATELET COUNT: 1364.67 x10E3/uL
  ALANINE AMINOTRANSFERASE: 47.67 u/L
  ALBUMIN: 4.2 G/DL
  ALKALINE PHOSPHATASE: 292.33 u/L
  ASPARTATE AMINOTRANSFERASE: 78.67 u/L
  BLOOD UREA NITROGEN: 14.67 mg/dL
  CARBON DIOXIDE: 25 mmol/L
  CHLORIDE: 102.33 MEQ/L
  CHOLESTEROL: 80.67 mg/dL
  CREATINE PHOSPHOKINASE: 290.33 u/L
  CREATININE: 0.19 mg/dL
  GLUCOSE: 173.67 mg/dL
  LACTATE DEHYDROGENASE: 127.33 u/L
  LIPASE: 8.33 u/L
  PHOSPHORUS: 12.7 mg/dL
  POTASSIUM: 5.88 MEQ/L
  SODIUM: 145.47 MEQ/L
  TOTAL BILIRUBIN: 0.2 mg/dL
  TOTAL PROTEIN: 6.23 G/DL
  URIC ACID: 1.67 mg/dL
